Data reported in ChEMBL document CHEMBL4184109, “Design, synthesis, and structure-activity relationship studies of novel tetrazole antifungal agents with potent activity, broad antifungal spectrum and high selectivity” (Bioorg Med Chem Lett, 2018).
≈ marks a conversion by molar mass, not a printed value.

Columns and labels:
Assay type in all cases: functional
Nannizzia gypsea = assay: Antifungal activity against Microsporum gypseum by serial dilution method
Candida parapsilosis = assay: Antifungal activity against Candida parapsilosis ATCC 22019 after 24 hrs by serial dilution method; conditions: Lodderomyces parapsilosis, ATCC 22019, 24 h
Aspergillus fumigatus = assay: Antifungal activity against Aspergillus fumigatus after 48 hrs by serial dilution method
Cryptococcus neoformans = assay: Antifungal activity against Cryptococcus neoformans after 72 hrs by serial dilution method
Candida albicans [1] = assay: Antifungal activity against Candida albicans Y0109 after 24 hrs by serial dilution method; conditions: Y0109, 24 h
Candida albicans [2] = assay: Antifungal activity against Candida albicans SC5314 after 24 hrs by serial dilution method; conditions: SC5314, 24 h
Nakaseomyces glabratus = assay: Antifungal activity against Candida glabrata after 24 hrs by serial dilution method
Trichophyton rubrum = assay: Antifungal activity against Trichophyton rubrum by serial dilution method

Row | Compound | MIC80 (Nannizzia gypsea) [µg/mL] | MIC80 (Candida parapsilosis) [µg/mL] | MIC80 (Aspergillus fumigatus) [µg/mL] | MIC80 (Cryptococcus neoformans) [µg/mL] | MIC80 (Candida albicans [1]) [µg/mL] | MIC80 (Candida albicans [2]) [µg/mL] | MIC80 (Nakaseomyces glabratus) [µg/mL] | MIC80 (Trichophyton rubrum) [µg/mL]
1 | O=c1n(-c2ccc(C(F)(F)C(O)(Cn3cnnn3)c3ccc(F)cc3F)nc2)cnn1C1CCCCCC1 (stereo not given) | > 64 | 0.5 (≈ 0.939 µM) | > 64 | 0.5 (≈ 0.939 µM) | 0.5 (≈ 0.939 µM) | 1 (≈ 1.88 µM) | 1 (≈ 1.88 µM) | –
2 | CC1CCC(n2ncn(-c3ccc(C(F)(F)C(O)(Cn4cnnn4)c4ccc(F)cc4F)nc3)c2=O)CC1 (stereo not given) | > 64 | 1 (≈ 1.88 µM) | > 64 | 1 (≈ 1.88 µM) | 1 (≈ 1.88 µM) | 2 (≈ 3.76 µM) | 2 (≈ 3.76 µM) | 0.5 (≈ 0.939 µM)
3 | O=c1n(-c2ccc(C(F)(F)C(O)(Cn3cnnn3)c3ccc(F)cc3F)nc2)cnn1C1CCCCCCC1 (stereo not given) | > 64 | 2 (≈ 3.66 µM) | > 64 | 2 (≈ 3.66 µM) | 1 (≈ 1.83 µM) | 2 (≈ 3.66 µM) | 4 (≈ 7.32 µM) | 1 (≈ 1.83 µM)
4 | O=c1n(-c2ccc(C(F)(F)C(O)(Cn3cnnn3)c3ccc(F)cc3F)nc2)cnn1CCC1CCCCC1 (stereo not given) | 4 (≈ 7.32 µM) | 0.5 (≈ 0.915 µM) | > 64 | 4 (≈ 7.32 µM) | 0.5 (≈ 0.915 µM) | 1 (≈ 1.83 µM) | 1 (≈ 1.83 µM) | 8 (≈ 14.6 µM)
5 | CC1(C)CCC(n2ncn(-c3ccc(C(F)(F)C(O)(Cn4cnnn4)c4ccc(F)cc4F)nc3)c2=O)CC1 (stereo not given) | > 64 | 4 (≈ 7.32 µM) | > 64 | 4 (≈ 7.32 µM) | 4 (≈ 7.32 µM) | 4 (≈ 7.32 µM) | 8 (≈ 14.6 µM) | 0.125 (≈ 0.229 µM)
6 | CC(C)C1CCC(n2ncn(-c3ccc(C(F)(F)C(O)(Cn4cnnn4)c4ccc(F)cc4F)nc3)c2=O)CC1 (stereo not given) | > 64 | 16 (≈ 28.5 µM) | > 64 | 16 (≈ 28.5 µM) | 8 (≈ 14.3 µM) | 16 (≈ 28.5 µM) | 16 (≈ 28.5 µM) | 1 (≈ 1.78 µM)
7 | O=c1n(-c2ccc(C(F)(F)C(O)(Cn3cnnn3)c3ccc(F)cc3F)nc2)cnn1Cc1cccnc1 (stereo not given) | – | 8 (≈ 15.2 µM) | > 64 | 2 (≈ 3.79 µM) | 4 (≈ 7.58 µM) | 8 (≈ 15.2 µM) | 4 (≈ 7.58 µM) | –
8 | O=c1n(-c2ccc(C(F)(F)C(O)(Cn3cnnn3)c3ccc(F)cc3F)nc2)cnn1CC1CC1 (stereo not given) | – | 0.25 (≈ 0.51 µM) | > 8 | 4 (≈ 8.16 µM) | 0.5 (≈ 1.02 µM) | 0.5 (≈ 1.02 µM) | 4 (≈ 8.16 µM) | –
9 | CCC(CC)n1ncn(-c2ccc(C(F)(F)C(O)(Cn3cnnn3)c3ccc(F)cc3F)nc2)c1=O (stereo not given) | – | 0.25 (≈ 0.494 µM) | > 8 | 4 (≈ 7.9 µM) | 2 (≈ 3.95 µM) | 1 (≈ 1.97 µM) | 1 (≈ 1.97 µM) | –
10 | CC(O)Cn1ncn(-c2ccc(C(F)(F)C(O)(Cn3cnnn3)c3ccc(F)cc3F)nc2)c1=O (stereo not given) | – | 8 (≈ 16.2 µM) | > 8 | 8 (≈ 16.2 µM) | > 8 | > 8 | > 8 | –
11 | O=c1n(-c2ccc(C(F)(F)C(O)(Cn3cnnn3)c3ccc(F)cc3F)nc2)cnn1C1CCC1 (stereo not given) | > 64 | 0.5 (≈ 1.02 µM) | > 64 | 0.5 (≈ 1.02 µM) | 0.25 (≈ 0.51 µM) | 1 (≈ 2.04 µM) | 1 (≈ 2.04 µM) | 8 (≈ 16.3 µM)
12 | O=c1n(-c2ccc(C(F)(F)C(O)(Cn3cnnn3)c3ccc(F)cc3F)nc2)cnn1C1CCC(F)(F)CC1 (stereo not given) | > 64 | 0.5 (≈ 0.902 µM) | > 64 | 0.5 (≈ 0.902 µM) | 0.5 (≈ 0.902 µM) | 1 (≈ 1.8 µM) | 2 (≈ 3.61 µM) | 2 (≈ 3.61 µM)
13 | O=c1n(-c2ccc(C(F)(F)C(O)(Cn3cnnn3)c3ccc(F)cc3F)nc2)cnn1Cc1ccncc1 (stereo not given) | – | 8 (≈ 15.2 µM) | > 64 | 2 (≈ 3.79 µM) | 4 (≈ 7.58 µM) | 4 (≈ 7.58 µM) | 4 (≈ 7.58 µM) | –
14 | COc1ccc(Cn2ncn(-c3ccc(C(F)(F)C(O)(Cn4cnnn4)c4ccc(F)cc4F)nc3)c2=O)cc1 (stereo not given) | – | 0.25 (≈ 0.449 µM) | > 8 | 2 (≈ 3.59 µM) | 0.5 (≈ 0.899 µM) | 0.5 (≈ 0.899 µM) | 2 (≈ 3.59 µM) | –
15 | CCn1ncn(-c2ccc(C(F)(F)C(O)(Cn3cnnn3)c3ccc(F)cc3F)nc2)c1=O (stereo not given) | – | 2 (≈ 4.31 µM) | > 8 | 8 (≈ 17.2 µM) | 2 (≈ 4.31 µM) | 2 (≈ 4.31 µM) | 8 (≈ 17.2 µM) | –
16 | O=c1n(-c2ccc(C(F)(F)C(O)(Cn3cnnn3)c3ccc(F)cc3F)nc2)cnn1CCO (stereo not given) | – | > 8 | > 8 | > 8 | > 8 | > 8 | > 8 | –
17 | O=c1n(-c2ccc(C(F)(F)C(O)(Cn3cnnn3)c3ccc(F)cc3F)nc2)cnn1C1CC=CCC1 (stereo not given) | 8 (≈ 15.5 µM) | 0.125 (≈ 0.242 µM) | > 64 | 1 (≈ 1.94 µM) | 0.5 (≈ 0.968 µM) | 0.5 (≈ 0.968 µM) | 1 (≈ 1.94 µM) | 2 (≈ 3.87 µM)
18 | O=c1n(-c2ccc(C(F)(F)C(O)(Cn3cnnn3)c3ccc(F)cc3F)nc2)cnn1Cc1ccc(Cl)cc1 (stereo not given) | – | 0.5 (≈ 0.891 µM) | > 8 | 1 (≈ 1.78 µM) | 1 (≈ 1.78 µM) | 1 (≈ 1.78 µM) | 2 (≈ 3.57 µM) | –
19 | CS(=O)(=O)CCn1ncn(-c2ccc(C(F)(F)C(O)(Cn3cnnn3)c3ccc(F)cc3F)nc2)c1=O (stereo not given) | – | > 8 | > 8 | > 8 | > 8 | > 8 | > 8 | –
20 | COC1CCC(n2ncn(-c3ccc(C(F)(F)C(O)(Cn4cnnn4)c4ccc(F)cc4F)nc3)c2=O)CC1 (stereo not given) | > 64 | 1 (≈ 1.82 µM) | > 64 | 1 (≈ 1.82 µM) | 0.5 (≈ 0.912 µM) | 1 (≈ 1.82 µM) | 4 (≈ 7.29 µM) | 8 (≈ 14.6 µM)
21 | OC(Cn1cncn1)(Cn1cncn1)c1ccc(F)cc1F [FLUCONAZOLE] | 8 (≈ 26.1 µM) | 1 (≈ 3.27 µM) | > 64 | 0.5 (≈ 1.63 µM) | 2 (≈ 6.53 µM) | 0.5 (≈ 1.63 µM) | 0.5 (≈ 1.63 µM) | 2 (≈ 6.53 µM)
22 | O=c1n(-c2ccc(C(F)(F)C(O)(Cn3cnnn3)c3ccc(F)cc3F)nc2)cnn1CC1CCCCC1 (stereo not given) | 4 (≈ 7.51 µM) | 0.25 (≈ 0.469 µM) | > 64 | 1 (≈ 1.88 µM) | 0.5 (≈ 0.939 µM) | 1 (≈ 1.88 µM) | 1 (≈ 1.88 µM) | 2 (≈ 3.76 µM)
